Test results taken from patent US9388210B2, “Neuroactive 17(20)-Z-vinylcyano-substituted steroids, prodrugs thereof, and methods of treatment using same” (priority 2011, dated 2016).
Like-named read-outs stand apart in the source and are kept apart here.

Assays:
[1] = tested on: BALB/C mice; assay: Anesthesia in mice, tail vein injection (loss of righting reflex); type: in vivo
Protocol: Anesthetic evaluations were performed in 7-8 week-old BALB/C mice, weighing approximately 20 g. Steroids were dissolved in 22.5% (w/v) 2-hydroxypropyl-β-cyclodextrin solution (Sigma-Aldrich) at a concentration of 1.6 mg/ml or 3.2 mg/ml and injected through the tail vein in volumes of 5 μl/g body weight. Doses (8 or 16 mg/kg) were calculated according to body weight. Animals were placed prone as soon as they stopped moving. Loss of LRR was defined as inability of mice to right themselves within 5 seconds after being placed in a prone position. […] Animals were placed on a warming blanket during the time that they were anesthetized. Each dose was administered to three or four mice and the results are presented as mean±standard error of the mean.

[2] = tested on: tadpole; assay: Tadpole loss of righting reflex (LRR) and loss of swimming reflex (LSR); type: in vivo
[3] = molecular target: rat α1β2γ2L type GABAA receptors (Rattus norvegicus (Rat), UniProt P62813+P63138, INS375LLRMFSFK); assay: Oocyte electrophysiology: potentiation of 2 μM GABA chloride currents and direct gating, Xenopus laevis oocytes; type: cell-based; conditions: for ratio of currents measured in the presence/absence of added compound, 0.1 μM: 0.1 μM compound; for ratio of currents measured in the presence/absence of added compound, 0.1 μM / ratio of currents measured in the presence/absence of added compound, 1 μM / (gating) 10 μM: ratio of compound only current/2 μM GABA current / ratio of currents measured in the presence/absence of added compound, 10 μM: ± SEM; for ratio of currents measured in the presence/absence of added compound, 0.1 μM / ratio of currents measured in the presence/absence of added compound, 1 μM / ratio of currents measured in the presence/absence of added compound, 10 μM: N ≥ 4; for ratio of currents measured in the presence/absence of added compound, 1 μM: 1 μM compound; for (gating) 10 μM: ratio of compound only current/2 μM GABA current: 10 μM compound in the absence of GABA; for ratio of currents measured in the presence/absence of added compound, 10 μM: 10 μM compound
Excerpt: The measured concentration of GABA, on average, gates about 4% of the maximum response of a cell. However, the sensitivity to GABA of the receptors, which determines the degree of steroid potentiation that can be measured, varied from one batch of oocytes to another.

[4] = molecular target: picrotoxin binding site on GABAA receptors; conditions: for IC50: duplicate experiments in triplicate, ± SEM, read-out: IC50, inhibition of [35S]-TBPS binding
[5] = loss of righting reflex, ± SEM, read-out: Tadpole LRR EC50
[6] = loss of swimming reflex, None = all animals had a swimming response at 10 μM, read-out: Tadpole LSR EC50
[7] = loss of swimming reflex, None = all animals had a swimming response at 10 μM

CC(=O)[C@H]1CC[C@H]2[C@@H]3CC[C@H]4C[C@H](O)CC[C@]4(C)[C@H]3C(=O)C[C@]12C [Compound 1, alphaxalone, reference compound]
duration of anesthesia (loss of righting reflex) ([1]; 16 mg/kg): about 4 min
recovery period from initial return of leg movement to righting and walking ([1]; 16 mg/kg): 1 to 2 min

C[C@]12CC[C@@H](O)C[C@@H]1CC[C@@H]1[C@@H]2C(=O)C[C@]2(C)C(C=O)=CC[C@@H]12 [Compound 5a, (3α,5α)-3-Hydroxy-11-oxoandrost-16-ene-17-carboxaldehyde]
EC50 [2, 5]: 3220 ± 30 nM

C[C@]12CC[C@@H](O)C[C@@H]1CC[C@H]1[C@@H]3CC[C@H](C=O)[C@@]3(C)CC(=O)[C@@H]12 [Compound 5b, (3α,5α,17β)-3-Hydroxy-11-oxoandrostane-17-carboxaldehyde]
EC50 [2, 5]: 3980 ± 2430 nM

C[C@]12CC[C@@H](O)C[C@@H]1CC[C@@H]1[C@@H]2C(=O)C[C@]2(C)/C(=C\C#N)CC[C@@H]12 [Compound 6a, [3α,5α,17(20)Z]-3-Hydroxy-11-oxopregn-17(20)-ene-2′-nitrile]
potentiation of GABA-mediated currents ([3]; 2 μM GABA, 0.1-10 μM compound): strongly enhanced GABA-mediated currents
EC50 [2, 6]: 5480 ± 200 nM
duration of anesthesia (loss of righting reflex) ([1]; 8 mg/kg): about 1.5 min
time to loss of movement and righting reflex ([1]; 8 mg/kg): 10 to 25 s
duration of anesthesia (loss of righting reflex) ([1]; 16 mg/kg): about 4 min
onset of loss of righting reflex ([1]; 16 mg/kg): immediate

C[C@]12CC[C@@H](O)C[C@@H]1CC[C@@H]1[C@@H]2C(=O)C[C@]2(C)/C(=C/C#N)CC[C@@H]12 [Compound 6b, [3α,5α,17(20)E]-3-Hydroxy-11-oxopregn-17(20)-ene-2′-nitrile]
EC50 [2, 5]: 9150 ± 5370 nM
EC50 [2, 6]: 17300 ± 170 nM

C/C(C#N)=C1\CC[C@H]2[C@@H]3CC[C@H]4C[C@H](O)CC[C@]4(C)[C@H]3C(=O)C[C@]12C [Compound 6c, [3α,5α,17(20)Z]-3-Hydroxy-11-oxopregn-17(20)-ene-20-carbonitrile]
EC50 [2, 5]: 2710 ± 260 nM
EC50 [2, 6]: 5480 ± 200 nM

C[C@]12CC[C@@H](O)C[C@H]1CC[C@@H]1[C@@H]2C(=O)C[C@]2(C)/C(=C\C#N)CC[C@@H]12 [Compound 13a, [3α,5β,17(20)Z]-3-Hydroxy-11-oxo-pregn-17(20)-ene-21-nitrile]
EC50 [2, 5]: > 10000 nM
Tadpole LSR EC50 [2, 7]: None

C[C@]12CC[C@@H](O)C[C@H]1CC[C@@H]1[C@@H]2C(=O)C[C@]2(C)/C(=C/C#N)CC[C@@H]12 [Compound 13b, [3α,5β,17(20)E]-3-Hydroxy-11-oxo-pregn-17(20)-ene-21-nitrile]
EC50 [2, 5]: > 10000 nM
Tadpole LSR EC50 [2, 7]: None

C[C@]12CC[C@@H](O)C[C@@H]1CC[C@@H]1[C@@H]2CC[C@]2(C)/C(=C\C#N)CC[C@@H]12 [Compound 14a, [3α,5α,17(20)Z]-3-Hydroxypregn-17(20)-ene-21-nitrile]
IC50 [4]: 25 ± 3 nM
fold stronger [35S]-TBPS displacement than 17a ([4]; relative to C-11 MeO (17a)): about 2 fold
fold stronger [35S]-TBPS displacement than 6a ([4]; relative to C-11 carbonyl (6a)): about 5 fold
ratio of currents measured in the presence/absence of added compound, 0.1 μM ([3]; 2 μM GABA): 2.18 ± 0.19
ratio of currents measured in the presence/absence of added compound, 1 μM ([3]; 2 μM GABA): 3.28 ± 0.37
(gating) 10 μM: ratio of compound only current/2 μM GABA current [3]: 0.29 ± 0.32
ratio of currents measured in the presence/absence of added compound, 10 μM ([3]; 2 μM GABA): 3.98 ± 0.25
anesthetic activity in tadpoles ([2]; LRR and LSR): lack of anesthetic activity
Tadpole LRR EC50 ([2]; loss of righting reflex, ± SEM): None
Tadpole LSR EC50 [2, 7]: None

C[C@]12CC[C@@H](O)C[C@@H]1CC[C@@H]1[C@@H]2CC[C@]2(C)/C(=C/C#N)CC[C@@H]12 [Compound 14b, [3α,5α,17(20)E]-3-Hydroxypregn-17(20)-ene-21-nitrile]
IC50 [4]: 501 ± 39 nM
ratio of currents measured in the presence/absence of added compound, 0.1 μM ([3]; 2 μM GABA): 0.76 ± 0.05
ratio of currents measured in the presence/absence of added compound, 1 μM ([3]; 2 μM GABA): 1.30 ± 0.07
(gating) 10 μM: ratio of compound only current/2 μM GABA current [3]: −0.14 ± 0.13
ratio of currents measured in the presence/absence of added compound, 10 μM ([3]; 2 μM GABA): 3.15 ± 0.38
EC50 [2, 5]: 1210 ± 410 nM
EC50 [2, 6]: > 10000 nM

C[C@]12CC[C@@H](O)C[C@H]1CC[C@@H]1[C@@H]2CC[C@]2(C)/C(=C\C#N)CC[C@@H]12 [Compound 15a, [3α,5β,17(20)Z]-3-Hydroxypregn-17(20)-ene-21-nitrile]
IC50 [4]: 56 ± 10 nM
ratio of currents measured in the presence/absence of added compound, 0.1 μM ([3]; 2 μM GABA): 1.32 ± 0.03
ratio of currents measured in the presence/absence of added compound, 1 μM ([3]; 2 μM GABA): 5.00 ± 0.30
(gating) 10 μM: ratio of compound only current/2 μM GABA current [3]: 0.03 ± 0.02
ratio of currents measured in the presence/absence of added compound, 10 μM ([3]; 2 μM GABA): 6.82 ± 0.68
EC50 [2, 5]: 472 ± 46 nM
EC50 [2, 6]: 1000 nM

C[C@]12CC[C@@H](O)C[C@H]1CC[C@@H]1[C@@H]2CC[C@]2(C)/C(=C/C#N)CC[C@@H]12 [Compound 15b, [(3α,5β,17(20)E]-3-Hydroxypregn-17(20)-ene-21-nitrile]
IC50 [4]: 1200 nM
ratio of currents measured in the presence/absence of added compound, 0.1 μM ([3]; 2 μM GABA): 0.94 ± 0.02
ratio of currents measured in the presence/absence of added compound, 1 μM ([3]; 2 μM GABA): 1.24 ± 0.04
(gating) 10 μM: ratio of compound only current/2 μM GABA current [3]: 0.01 ± 0.01
ratio of currents measured in the presence/absence of added compound, 10 μM ([3]; 2 μM GABA): 4.83 ± 0.44
EC50 [2, 5]: 1210 ± 350 nM
EC50 [2, 6]: 5480 ± 200 nM

CO[C@H]1C[C@@]2(C)[C@@H](CC[C@@H]3[C@@H]2CC[C@]2(C)/C(=C\C#N)CC[C@@H]32)C[C@@H]1O [Compound 16a, [2β,3α,5α,17(20)Z]-3-Hydroxy-2-methoxyandrost-17(20)-ene-21-nitrile]
IC50 [4]: 28 ± 2 nM
ratio of currents measured in the presence/absence of added compound, 0.1 μM ([3]; 2 μM GABA): 2.14 ± 0.33
ratio of currents measured in the presence/absence of added compound, 1 μM ([3]; 2 μM GABA): 12.02 ± 2.54
(gating) 10 μM: ratio of compound only current/2 μM GABA current [3]: 0.40 ± 0.12
ratio of currents measured in the presence/absence of added compound, 10 μM ([3]; 2 μM GABA): 18.77 ± 5.16
EC50 [2, 5]: 29 ± 6 nM
EC50 [2, 6]: 110 ± 1 nM

CO[C@H]1C[C@@]2(C)[C@@H](CC[C@@H]3[C@@H]2CC[C@]2(C)/C(=C/C#N)CC[C@@H]32)C[C@@H]1O [Compound 16b, [2β,3α,5α,17(20)E]-3-Hydroxy-2-methoxyandrost-17(20)-ene-21-nitrile]
IC50 [4]: 544 ± 87 nM
ratio of currents measured in the presence/absence of added compound, 0.1 μM ([3]; 2 μM GABA): 0.95 ± 0.15
ratio of currents measured in the presence/absence of added compound, 1 μM ([3]; 2 μM GABA): 1.34 ± 0.07
(gating) 10 μM: ratio of compound only current/2 μM GABA current [3]: 0.03 ± 0.14
ratio of currents measured in the presence/absence of added compound, 10 μM ([3]; 2 μM GABA): 4.81 ± 0.36
EC50 [2, 5]: 290 ± 50 nM
EC50 [2, 6]: 2970 nM

CO[C@H]1C[C@]2(C)/C(=C\C#N)CC[C@H]2[C@@H]2CC[C@H]3C[C@H](O)CC[C@]3(C)[C@H]21 [Compound 17a, [3α,5α,11β,17(20)Z]-3-Hydroxy-11-methoxypregn-17(20)-ene-21-nitrile]
IC50 [4]: 53 ± 7 nM
ratio of currents measured in the presence/absence of added compound, 0.1 μM ([3]; 2 μM GABA): 2.14 ± 0.28
ratio of currents measured in the presence/absence of added compound, 1 μM ([3]; 2 μM GABA): 10.28 ± 2.62
(gating) 10 μM: ratio of compound only current/2 μM GABA current [3]: 0.06 ± 0.07
ratio of currents measured in the presence/absence of added compound, 10 μM ([3]; 2 μM GABA): 11.20 ± 3.28
EC50 [2, 5]: 67 ± 3 nM
EC50 [2, 6]: 173 ± 3 nM

CO[C@H]1C[C@]2(C)/C(=C/C#N)CC[C@H]2[C@@H]2CC[C@H]3C[C@H](O)CC[C@]3(C)[C@H]21 [Compound 17b, [3α,5α,11β,17(20)E]-3-Hydroxy-11-methoxypregn-17(20)-en-21-nitrile]
IC50 [4]: 605 ± 139 nM
ratio of currents measured in the presence/absence of added compound, 0.1 μM ([3]; 2 μM GABA): 0.99 ± 0.02
ratio of currents measured in the presence/absence of added compound, 1 μM ([3]; 2 μM GABA): 1.07 ± 0.03
(gating) 10 μM: ratio of compound only current/2 μM GABA current [3]: 0.01 ± 0
ratio of currents measured in the presence/absence of added compound, 10 μM ([3]; 2 μM GABA): 3.68 ± 0.17
EC50 [2, 5]: 1190 ± 490 nM
EC50 [2, 6]: 3170 ± 10 nM

[3α,5α,17(20)E]-3-(Acetyloxy)-11-oxopregn-17(20)-ene-20-carbonitrile [Compound 6d]
EC50 [2, 5]: 2090 ± 120 nM
EC50 [2, 6]: > 10000 nM
